Test results: patent US12343397B2, “Drug-resistant immune cells and methods of use thereof” (Regents of the University of Minnesota, priority 2018, dated 2025)

Tests used:
Tregs = test: CNI (CsA, FK506) effect on Treg survival in vitro; type: cell-based, human; conditions: cyclosporine 20, 200, 2000 ng/ml or FK506 3, 10, 30 ng/ml, 2-3 days; IL-2 300 U/mL; even at >3-fold over peak therapeutic values
Description: The percent survival relative to the control Tregs without drugs is shown. IL-2 concentration of 300 U/mL was used. […] FIG. 7D depicts data showing the percent relative survival of Tregs without drug at IL-2 300 U/mL as compared to those cultured with the indicated concentrations of drug in the presence of IL-2 at 30, 100, or 300 U/mL as indicated. Mean values are shown±standard error of the mean for three (FIG. 7B) or four (FIG. 7D) separate cultures.
To model the in vivo inhibitory effects of CNI on Treg survival and expansion, banked Tregs were thawed, re-stimulated, expanded for 4±1 days and treated with or without cyclosporine (20, 200, and 2000 ng/ml) or FK506 (3, 10, 30 ng/ml) for an additional 2-3 days and relative survival was assessed by flow cytometry. Studies were performed with non-separated Tregs, naïve Tregs and memory Tregs, to determine whether one subset was differentially sensitive to Dex and CNIs and to determine whether IL-2 dependency differences might permit lower IL-2 concentrations.

allogeneic GVHD model = type: in vivo
Description: To test whether gene modified (GR2-CRISPR/Cas9) or gene edited (GR2-CRISPR/Cas9/AAV-CaN mut.) Tregs have increased efficacy in vivo in the presence of glucocorticoid, how glucocorticoid (methyl-prednisolone) effects GVHD in preclinical mouse models was first determined. […] For these reasons, as well as the more logistically feasible and cost effective benefits of an allogeneic GVHD model, optimized steroid use in allogeneic recipients for GVHD prevention and therapy were first tested, and then applied to a xenogeneic model to enable testing of the human Treg product. […] The T cell dose was reduced to 1.5×10^6 and moved to GVHD therapy beginning on day 3 or day 4 (rather than day 1 prophylaxis) and compared no treatment to vehicle to prednisolone (n=8/group).

xeno-GVHD model = test: Xenogeneic GVHD model (NSG mice given human PBMC); type: in vivo
Protocol: FIGS. 11A-11D depicts the monitoring of GVHD in mice. Human PBMC (15×10^6) were injected into irradiated (50 rad) NSG mice±methylprednisolone (15 mg/kg), and signs of GVHD were monitored. FIG. 11A depicts a schematic illustration of the experiments indicating cohorts (n=7 mice each), dosing schedule, and analysis points. FIG. 11B depicts Kaplan-Meier survival curves for mice receiving PBMC only, or PBMC+prednisolone (p=0.104). FIG. 11C depicts disease progression monitored by weight loss (p=not significant). FIG. 11D depicts disease progression monitored by quantitating the number of PBMC-derived CD45+, CD4+, CD8+, and CD4+Foxp3+ T cells (p<0.03, <0.05, <0.03, and not significant, respectively). Animals were bled on day 19 for assessment.
FIGS. 12A-12D depicts the monitoring of GVHD in mice. […] FIG. 12B depicts Kaplan-Meier survival curves for mice receiving PBMC only, or PBMC+CNI (PBMC only vs. FK506 (36 mg/kg), p≤0.04). FIG. 12C depicts disease progression monitored by weight loss (p=not significant). FIG. 12D depicts disease progression monitored by quantitating the number of PBMC-derived CD45+, CD4+, CD8+, and CD4+Foxp3+ T cells (p<0.03, <0.05, <0.02, and not significant, respectively). Animals were bled on day 18 for assessment.
A follow up study has shown that xeno-GVHD pathology induced with 200 rad+1×10^7 human PBMC is more reproducible, and median survival is reduced from ˜25 days to ˜20 days.

Structure (SMILES): C=CC[C@@H]1/C=C(\C)C[C@H](C)C[C@H](OC)[C@H]2O[C@@](O)(C(=O)C(=O)N3CCCC[C@H]3C(=O)O[C@H](/C(C)=C/[C@@H]3CC[C@@H](O)[C@H](OC)C3)[C@H](C)[C@@H](O)CC1=O)[C@H](C)C[C@@H]2OC [FK506, Tacrolimus]
- effect on Treg survival in vitro (Tregs): neither CsA or FK506 had a significant effect on Treg survival
- day 100 survival (allogeneic GVHD model; 36 mg/kg/day in carboxymethylcellulose, vehicle 0% by day 37): 55%-90
- GVHD prophylaxis efficacy (allogeneic GVHD model; 12 or 24 mg/kg/day in aqueous solution): poorer efficacy
- optimal GVHD prophylactic dose (allogeneic GVHD model; allogeneic GVHD model): 36 mg/kg/day
- survival (xeno-GVHD model; 12 mg/kg, P=0.45): not significantly different
- median survival (xeno-GVHD model; 12 mg/kg, controls 29 days): 20 days
- in vivo expansion of human CD45+, CD4+ and CD8+ cells (xeno-GVHD model; FK506 36 or 12 mg/kg, CsA 80 mg/kg, vs PBMC only controls): significantly reduced
- survival (xeno-GVHD model; high dose, 36 mg/kg): significantly decreased survival
